The numbers were not newly measured in paper PMC7878667, “The Kinase Specificity of Protein Kinase Inhibitor Peptide” (Frontiers in Pharmacology, 2021), which cites them from elsewhere.

One data set deals with ROCK2. The settings on record: ref Murray, 2008. The source says:
(§1) Despite the additional targets of PKI identified in our study, PKI seems more specific than the other commonly used PKA inhibitors, H89 and KT 5720 ([Murray, 2008]). This may be due to their different mechanisms of action. […] The off-target effects of these reagents have partial overlap ([Murray, 2008]).

In the next data set the test system is PKA catalytic subunit. The settings on record: ref Murray, 2008.
Source text: as §1

The test system of a further data set is PKBα. As to conditions: ref Murray, 2008.
Source text: as §1

The test system of the next data set is PDK1. The settings on record: ref Murray, 2008.
Source text: as §1

The subject of the next data set is PKC. The settings on record: ref Day et al., 1989; Smith et al., 1990. The source says:
In principle, this could be due to PKI interfering with 1) the protease reaction, 2) the fluorescence detection, or 3) the FRET response. […] Second, the forms of PKC used are different: we used purified human recombinant PKC isoforms expressed in insect ce ...

`O=S(=O)(NCCNC/C=C/c1ccc(Br)cc1)c1cccc2cnccc12` [H89]: the “effect on ROCK2” value in the data set on ROCK2 is on record as “inhibits ROCK2 potently”. For the same compound, the “mechanism of PKA inhibition” value in the data set with PKA catalytic subunit is recorded as “competitively inhibits ATP binding on the PKA catalytic subunit”. Besides, the “effect on PKBα” value with PKBα is listed as “inhibited”.
As to `CCCCCCOC(=O)[C@]1(O)C[C@@H]2O[C@@]1(C)n1c3ccccc3c3c4c(c5c6ccccc6n2c5c31)C(=O)NC4` [KT 5720], in the data set on PDK1, the “effect on PDK1 activity” value is recorded as “inhibited”. The “mechanism of PKA inhibition” value with PKA catalytic subunit is reported as “competitively inhibits ATP binding on the PKA catalytic subunit”. The “effect on PKBα” value in the data set on PKBα was “inhibited”.
As for IAAGRTGRRQAIHDILVAA [PKI-tide], the “influence on PKC” value in the data set with PKC was “did not find significant influence”.
